Assay results as given in patent publication US4495202A, “Terphenyl derivatives and pharmaceutical uses thereof” (Eli Lilly and Company, priority 1983, dated 1985).
Where two headings read alike, the source gives them in different places.

Columns and labels:
[1] = system: male Lewis-Wistar rats; assay: Established adjuvant-induced arthritis test in rats; type: in vivo; settings: rat, days 15-29, from areas under the curves of uninjected paw volume
[2] = system: Cox standard strain albino male mice; assay: standard mouse writhing assay (acetic acid-induced writhing); type: in vivo
Method: The analgesic activity of a number of compounds provided by this invention has been determined in the standard mouse writhing assay. Writhing, which is characterized by contraction of the abdominal musculature, extension of the hindlegs, and rotation of the trunk, was induced in Cox standard strain albino male mice. […] Each treatment group consisted of five mice. The total number of writhes for the treatment group was determined during a 10-minute observation starting five minutes after acetic acid administration. […] Table I which follows presents typical test results obtained with certain of the compounds of this invention. The results in the mouse writhing assay are presented as the effective oral (p.o.) dose in mg./kg. of the tested compound required to inhibit induced writhing in the test animals by fifty percent (ED50).

[3] = 25 mg./kg. p.o. × 15, corn oil-acacia emulsion by gavage
[4] = 3 h, oral gavage in corn oil-acacia emulsion (5%), three hours before acetic acid (0.60 percent, i.p.), inhibition of writhing by fifty percent, read-out: Mouse Writhing ED50
[5] = 10 mg./kg. p.o. × 15, corn oil-acacia emulsion by gavage

SMILES | % Inhibition of Uninjected Paw Volume Inflammation, Days 14 through 30 [1, 3] [%] | ED50 [2, 4] [mg/kg] | ED50 ([2]; 4 h, oral, at four hours post dosing, read-out: Mouse Writhing ED50 at four hours post dosing) [mg/kg] | % Inhibition of Uninjected Paw Volume Inflammation, Days 14 through 30 [1, 5] [%]
COc1ccc(-c2ccc(-c3ccc(F)cc3)cc2-c2ccc(OC)cc2)cc1 [Example 1, 4'-(4-Fluorophenyl)-4,4"-dimethoxy-1,1':2',1"-terphenyl] | 55 | 11.8 | 3.9 | 
COc1ccc(-c2ccc(-c3ccccc3)cc2-c2ccc(OC)cc2)cc1 [Example 2, 4'-Phenyl-4,4"-dimethoxy-1,1':2',1"-terphenyl] | 13 | 14.6 |  | 
COc1ccc(-c2ccc(-c3ccc(Cl)cc3)cc2-c2ccc(OC)cc2)cc1 [Example 3, 4'-(4-Chlorophenyl)-4,4"-dimethoxy-1,1':2',1"-terphenyl] | 52 | 14.2 |  | 31
COc1ccc(-c2ccc(-c3ccc(Br)cc3)cc2-c2ccc(OC)cc2)cc1 [Example 4, 4'-(4-Bromophenyl)-4,4"-dimethoxy-1,1':2',1"-terphenyl] | 34 | 72.8 |  | 
COc1ccc(-c2ccc(-c3cccc(F)c3)cc2-c2ccc(OC)cc2)cc1 [Example 5, 4'-(3-Fluorophenyl)-4,4"-dimethoxy-1,1':2',1"-terphenyl] | 40 | 8.9 |  | 
COc1ccc(-c2ccc(C(F)(F)F)cc2-c2ccc(OC)cc2)cc1 [Example 6, 4'-Trifluoromethyl-4,4"-dimethoxy-1,1':2',1"-terphenyl] |  | 5.6 |  | 48
